Reference: ChEMBL document CHEMBL1799910, “Optimization of 1,2,3,4-tetrahydroacridin-9(10H)-ones as antimalarials utilizing structure-activity and structure-property relationships” (J Med Chem, 2011)
In brackets after ≈: the same amount, converted by molar mass.

Key:
J774 = experiment: Cytotoxicity against mouse J774 cells after 72 hrs by Cell titer 96 aqueous one solution cell proliferation assay; type: cell-based; conditions: J774, 72 h
[1] = Permeability of the compound by PAMPA method at pH 7.4; type: ADME; conditions: read-out: permeability
Plasmodium falciparum [2] = experiment: Antimalarial activity against chloroquine, mefloquine, pyrimethamine and atovaquone-resistant Plasmodium falciparum TM90-C2B infected in human A positive erythrocytes after 72 hrs by SYBR Green I assay; type: functional, organism-based
[3] = Partition coefficient, log D of the compound at pH 7.4 by HPLC analysis; conditions: octanol/water
Plasmodium falciparum [4] = experiment: Resistance index, ratio of EC50 for chloroquine, mefloquine, pyrimethamine and atovaquone-resistant Plasmodium falciparum TM90-C2B to EC50 for chloroquine and pyrimethamine-resistant Plasmodium falciparum W2; type: functional
Plasmodium falciparum [5] = experiment: Antimalarial activity against chloroquine and pyrimethamine-resistant Plasmodium falciparum W2 infected in human A positive erythrocytes after 72 hrs by SYBR Green I assay; type: functional, organism-based; conditions: W2, 72 h
[6] = Aqueous solubility of compound at pH 7.4 by HPLC analysis; conditions: buffer
Liver = experiment: Stability in mouse liver microsomes; type: ADME, Microsome; conditions: microsomes
[7] = Cytotoxicity index, ratio of EC50 for mouse J774 cells to EC50 for chloroquine, mefloquine, pyrimethamine and atovaquone-resistant Plasmodium falciparum TM90-C2B; type: cell-based; conditions: read-out: Ratio EC50
Plasmodium falciparum [8] = experiment: Antimalarial activity against Plasmodium falciparum D6 infected in human A positive erythrocytes after 72 hrs by SYBR Green I assay; type: functional, organism-based; conditions: D6, 72 h

| SMILES | EC50 (J774) [nM] | Papp [1] [×10⁻⁶ cm/s] | EC50 (Plasmodium falciparum [2]) [nM] | logD [3] | Ratio EC50 (Plasmodium falciparum [4]) | EC50 (Plasmodium falciparum [5]) [nM] | solubility [6] [µM] | Stability (Liver) | selectivity ratio [7] | EC50 (Plasmodium falciparum [8]) [nM] |
| --- | --- | --- | --- | --- | --- | --- | --- | --- | --- | --- |
| O=c1c2c([nH]c3cc(-c4ccc(C(F)(F)F)cc4)ccc13)CCCC2 | > 2000 | 250 | 8.7 | 2.45 | 0.24 | 34.9 | 3 (≈ 1.03 µg/mL) | Stable | ≥ 100 |  |
| COc1cc2[nH]c3c(c(=O)c2cc1Cl)CS(=O)(=O)CC3 | > 20000 |  | 8410 | 1 | 1.76 | 4710 | 24 (≈ 7.53 µg/mL) | Stable | ≥ 100 |  |
| O=C1CC(c2ccc(C(F)(F)F)cc2)Cc2c1c(=O)c1cc(Cl)ccc1n2O (centres undefined) [FLOXACRINE] |  |  |  |  |  | 478 |  |  | ≥ 100 | 270 |
| O=c1c2c([nH]c3ccc(-c4ccc(C(F)(F)F)cc4)cc13)CCCC2 | > 2000 | 36 | 44.9 | 3.6 | 0.77 | 58.2 | 2 (≈ 0.687 µg/mL) | Stable | ≥ 100 |  |
